Test system: hyperalgesic responses following chronic constriction injuries of the rat sciatic nerve
Test: Chronic constriction injury (CCI)-induced mechanical hyperalgesia in rats (modified Randall-Selitto method)
Assay type: in vivo
Details: for Contra-PWT30 min (paw withdrawal threshold, contralateral unlesioned paw) / Ipsi-PWT30 min (paw withdrawal threshold, CCI-lesioned ipsilateral paw) / PWT30 min: 30 min after treatment; for Contra-PWT30 min (paw withdrawal threshold, contralateral unlesioned paw) / Ipsi-PWT30 min (paw withdrawal threshold, CCI-lesioned ipsilateral paw): cut-off 240 g; for Ipsi-PWT30 min (paw withdrawal threshold, CCI-lesioned ipsilateral paw): 7 days after sciatic nerve ligation; for PWT30 min / PWT60 min: Table II, 175 μmol/kg sc each agent, alone or in combination; for PWT60 min: 60 min after treatment
Description: The efficacy of nitrooxyderivatives of antioxidant compounds of formula (I) in the treatment of neuropathic pain was evaluated in the model of hyperalgesic responses following chronic constriction injuries of the rat sciatic nerve. The pharmacological activity of the compounds of formula (I) was compared to that of the known analgesic drugs. The parent not-derivatized antioxidant drug was used as reference. The efficacy of the equimolar combination of compounds of formula (I) and analgesic drugs selected between the group of gabapentin, tiagabine and pregabalin was also evaluated, on the same experimental model.
The method described by Bennet and Xie (1988) was generally followed. Rats were anesthetized with chloral hydrate (380 mg/kg ip, Sigma). The right common sciatic nerve was exposed at the level of the middle of the high by blunt dissection through the biceps femoris. Proximal to the sciatic's trifurcation, about 12 mm of nerve was freed of adhering tissue and four ligatures (3/0 silk suture) were tied loosely around it with about 1 mm spacings. Ligatures were tied such that the diameter of the nerve was only barely constricted. […] The incision was closed in layers. The experiments were then carried out 1 week after surgery. Mechanical hyperalgesia was determined with an analgesimeter (Ugo Basile, Italy), using the modified Randall-Selitto method. Briefly, a conical stylus with a hemispherical tip was places upon the middle of hind paw dorsum. The animal was gently restrained and calibrated pressure of gradually increasing intensity was applied until the rat withdrew the hindpaw. Threshold pressure (g) of both hindpaws was determined every 15 minutes, with two measurements before the treatments (pretest), and from 15 to 60 minutes after treatment. An arbitrary cut-off value of 240 g was adopted.

Row | Structure (SMILES) | Contra-PWT30 min (paw withdrawal threshold, contralateral unlesioned paw) (175 μmol/kg sc) | sedative effect (175 μmol/kg sc, observed in CCI experiment) | Ipsi-PWT30 min (paw withdrawal threshold, CCI-lesioned ipsilateral paw) (175 μmol/kg sc) | PWT30 min | PWT60 min
1 | COc1cc(/C=C/C(=O)OCCCCO[N+](=O)[O-])ccc1O [Ferulic acid 4-(nitrooxy)butyl ester, Ferulic Acid 4-(nitrooxy)butyl ester] | 98.5 ± 4.8 g | did not induce any appreciable sedative effect | 76.3 ± 4.8 g | 76.3 ± 4.8 g | 37.5 ± 5.9 g
2 | NCC1(CC(=O)O)CCCCC1 [Gabapentin] | 84.3 ± 3.9 g |  | 75.1 ± 9.8 g | 75.1 ± 9.8 g | 37.6 ± 7.0 g
3 | COc1cc(/C=C/C(=O)O)ccc1O [Ferulic acid] | 71.4 ± 11.1 g |  | 37.9 ± 15.5 g |  | 

Reference: patent US20100179192A1, “USE OF NITRIC OXIDE RELEASING COMPOUNDS IN THE TREATMENT OF CHRONIC PAIN” (NICOX S.A., priority 2007, published 2010)
